Laboratory results published in patent publication US6423689B1, “Peptidyl calcium channel blockers” (Warner-Lambert Company, priority 1997, dated 2002).

What was measured:
[1] = target: T1, N-type Ca2+ channels in superior cervical ganglion (SCG) neurons (Rattus norvegicus, UniProt Q02294); assay: Whole-cell voltage clamp, N-type Ca2+ current in SCG neurons; format: cell-based; settings: for IC50: read-out: Inhibition of N-type Ca2+ Current IC50
T1 construct: from tissue
Method: (§1) Electrophysiological techniques were used to measure the effects of experimental compounds on voltage-gated Ca^2+, Na^+ and K^+ channels. […] Sodium and potassium channel currents were measured from acutely dissociated SCG neurons.
(§2) Dissociation of the neurons from the ganglia was accomplished using a 30 to 45 minute treatment in 0.25% trypsin, similar to methods outlined in Higgins, et al. [see Higgins D., et al. “Tissue culture of mammalian autonomic neurons.” In Banker G. and Goslin K. (Eds), Culturing Nerve Cells, Cambridge, Mass., MIT Press (1991)].
(§3) Ca^2+, Na^+ and K^+ channel currents in SCG neurons were measured using conventional single electrode whole-cell voltage-clamp techniques, outlined in Hamill, et al., (see Hamill O.P., et al. “Improved patch-clamp techniques for high resolution current recordings from cells and cell-free membrane patches”. Pflugers Arch. 1981;391:85-100) For Ca^2+ channel experiments, the external bathing solution contained tetraethylammonium chloride (100 mM), choline chloride (52 mM), NaCl (15 mM), HEPES (10 mM), glucose (5.6 mM), CaCl2 (2 mM), and MgCl2 (0.8 mM) pH 7.35 with KOH; with the internal pipette solution containing cesium methane sulfonate (140 mM), EGTA (10 mM), and HEPES (10 mM), supplemented with 5 mM Mg^2+ -ATP on the day of the experiment, pH 7.4 with CsOH. For Na^+ and K^+ channel experiments, the external bathing solution contained NaCl (150 mM), KCl (5 mM), MgCl2 (1.1 mM), CaCl2 (2.6 mM), Na-HEPES (10 mM), and glucose (10 mM), pH 7.4; with the internal pipette solution containing KCl (80 mM), K-gluconate (50 mM), HEPES (10 mM), and EGTA (10 mM), pH 7.4 with KOH. Experimental compounds were diluted into the external solution and applied to the soma of cells by local perfusion from large diameter (20-50 μm) glass micropipettes or from a U-tube applicator.
After obtaining a whole-cell recording, Ca^2+ channels were elicited by stepping to test potentials between −40 and +20 mV for 120 msec from the holding potential of −90 mV to determine if the amplitude of the current and clamp control were adequate for evaluation of drug effects. Ca^2+ channel currents were evoked by stepping from a holding potentials between −65 mV and −−55 mV to a test potential of +20 mV for 150 msec every 40 seconds. The amplitude of the Ca^2+ channel currents were compared before and during drug application and drug effects expressed as percent inhibition of the amplitude of control currents.

[2] = test system: K+ channels in superior cervical ganglion (SCG) neurons; assay: Whole-cell voltage clamp, K+ current in SCG neurons; format: cell-based, rat; settings: 10 μM
Method: as §1, §2, §3
(§4) For Na^+ and K^+ channel currents, following the determination of the I/V relationship for each cell in control solution, currents were evoked from a holding potential between −65 and −55 mV by stepping every 10 sec to a test potential of either 0 mV for Na^+ or +50 mV for K^+ current for a duration of 35 msec. Peak inward current was measured for Na^+ and sustained current for K^+ channel currents. […] Test compounds were applied until steady-state block was achieved. Data were expressed as percent inhibition of control amplitudes for Na^+ and K^+ channel currents.

[3] = test system: Na+ channels in superior cervical ganglion (SCG) neurons; assay: Whole-cell voltage clamp, Na+ current in SCG neurons; format: cell-based, rat; settings: 10 μM
Method: as §1, §2, §3, §4

[4] = target: T2, N-type Ca2+ channels in IMR-32 cells (Homo sapiens, UniProt Q00975); assay: Inhibition of N-type calcium flux in IMR-32 cells (Indo-1 fluorescence, nitrendipine present); format: cell-based; settings: for inhibition at 1 µM / inhibition at 10 µM: IMR-32; for IC50: IMR-32 cells, 5 μM nitrendipine, K+ depolarization
T2 construct: host or cells: IMR-32 cells, differentiated with dibutyryl cAMP and bromodeoxyuridine
Method in brief: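 Differentiated IMR-32 cells (7–13 days) were loaded with 5 μM Indo-1 AM, preincubated with compound for 10 min at 30° C, and depolarized with KCl/CaCl2 stimulation solution, with 5 μM nitrendipine blocking L-channels. Peak-minus-basal 400/490 nm emission ratio was plotted against drug concentration, and IC50 came from four-parameter logistic fits.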

T1 sequence (Q02294 whole entry): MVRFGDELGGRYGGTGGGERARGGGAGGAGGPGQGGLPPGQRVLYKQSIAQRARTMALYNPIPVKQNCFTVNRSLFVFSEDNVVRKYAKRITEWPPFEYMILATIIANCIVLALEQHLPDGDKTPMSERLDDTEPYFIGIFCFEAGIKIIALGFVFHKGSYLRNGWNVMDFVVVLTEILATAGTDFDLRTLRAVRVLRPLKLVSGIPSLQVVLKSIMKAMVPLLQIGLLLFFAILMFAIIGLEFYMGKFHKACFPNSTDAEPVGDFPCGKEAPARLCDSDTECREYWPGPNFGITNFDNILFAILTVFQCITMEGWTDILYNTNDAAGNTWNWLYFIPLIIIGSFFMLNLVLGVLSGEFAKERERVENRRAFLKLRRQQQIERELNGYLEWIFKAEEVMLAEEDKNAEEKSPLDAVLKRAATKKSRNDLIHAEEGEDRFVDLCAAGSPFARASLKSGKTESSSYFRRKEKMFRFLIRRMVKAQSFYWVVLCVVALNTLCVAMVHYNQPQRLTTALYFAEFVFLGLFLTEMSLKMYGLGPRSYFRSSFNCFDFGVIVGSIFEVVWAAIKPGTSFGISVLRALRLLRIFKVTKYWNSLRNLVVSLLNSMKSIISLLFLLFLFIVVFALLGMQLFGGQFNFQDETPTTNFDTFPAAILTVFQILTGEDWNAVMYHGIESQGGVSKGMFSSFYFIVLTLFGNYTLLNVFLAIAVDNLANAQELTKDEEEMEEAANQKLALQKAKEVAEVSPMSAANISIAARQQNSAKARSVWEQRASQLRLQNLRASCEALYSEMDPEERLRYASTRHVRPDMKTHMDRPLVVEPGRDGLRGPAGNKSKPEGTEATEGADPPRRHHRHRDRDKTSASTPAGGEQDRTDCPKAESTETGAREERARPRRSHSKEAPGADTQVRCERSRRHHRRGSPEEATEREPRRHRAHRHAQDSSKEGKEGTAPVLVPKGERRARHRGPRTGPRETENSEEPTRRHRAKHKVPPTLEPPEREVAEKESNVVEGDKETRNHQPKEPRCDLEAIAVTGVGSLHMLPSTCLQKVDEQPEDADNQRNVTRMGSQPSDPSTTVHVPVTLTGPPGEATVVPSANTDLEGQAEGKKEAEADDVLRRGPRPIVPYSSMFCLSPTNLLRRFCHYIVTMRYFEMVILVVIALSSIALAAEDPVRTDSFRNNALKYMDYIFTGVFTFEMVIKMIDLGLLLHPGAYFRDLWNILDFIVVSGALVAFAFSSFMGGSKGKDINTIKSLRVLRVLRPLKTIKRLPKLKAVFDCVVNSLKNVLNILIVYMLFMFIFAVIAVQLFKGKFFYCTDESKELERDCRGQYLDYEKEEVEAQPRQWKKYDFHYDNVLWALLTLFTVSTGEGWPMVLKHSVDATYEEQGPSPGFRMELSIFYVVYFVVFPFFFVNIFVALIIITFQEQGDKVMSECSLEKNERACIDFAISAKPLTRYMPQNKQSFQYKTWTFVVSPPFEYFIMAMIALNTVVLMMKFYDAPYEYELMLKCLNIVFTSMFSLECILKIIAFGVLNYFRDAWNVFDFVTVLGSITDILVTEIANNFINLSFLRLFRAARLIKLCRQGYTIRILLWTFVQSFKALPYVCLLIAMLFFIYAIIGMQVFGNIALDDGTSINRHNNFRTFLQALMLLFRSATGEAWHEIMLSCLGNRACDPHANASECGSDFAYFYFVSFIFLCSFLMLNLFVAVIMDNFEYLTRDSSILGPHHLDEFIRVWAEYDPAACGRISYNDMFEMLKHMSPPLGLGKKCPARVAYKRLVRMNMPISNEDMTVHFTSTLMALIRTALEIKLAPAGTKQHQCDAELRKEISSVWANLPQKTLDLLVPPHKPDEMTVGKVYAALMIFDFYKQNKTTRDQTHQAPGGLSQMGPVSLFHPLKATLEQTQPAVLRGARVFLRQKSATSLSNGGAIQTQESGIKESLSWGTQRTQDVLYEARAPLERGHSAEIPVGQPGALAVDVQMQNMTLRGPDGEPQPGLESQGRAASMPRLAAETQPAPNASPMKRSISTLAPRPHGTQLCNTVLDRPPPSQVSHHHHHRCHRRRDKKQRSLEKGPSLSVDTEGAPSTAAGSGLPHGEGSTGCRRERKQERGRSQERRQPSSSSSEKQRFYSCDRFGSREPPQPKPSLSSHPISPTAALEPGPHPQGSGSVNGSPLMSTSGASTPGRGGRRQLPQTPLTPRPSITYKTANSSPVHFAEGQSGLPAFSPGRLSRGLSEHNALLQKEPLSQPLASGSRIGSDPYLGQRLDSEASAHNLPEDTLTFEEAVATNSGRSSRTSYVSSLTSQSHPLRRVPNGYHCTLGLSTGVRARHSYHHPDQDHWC
T1 sequence (P54290 25-944 partner limits assumed): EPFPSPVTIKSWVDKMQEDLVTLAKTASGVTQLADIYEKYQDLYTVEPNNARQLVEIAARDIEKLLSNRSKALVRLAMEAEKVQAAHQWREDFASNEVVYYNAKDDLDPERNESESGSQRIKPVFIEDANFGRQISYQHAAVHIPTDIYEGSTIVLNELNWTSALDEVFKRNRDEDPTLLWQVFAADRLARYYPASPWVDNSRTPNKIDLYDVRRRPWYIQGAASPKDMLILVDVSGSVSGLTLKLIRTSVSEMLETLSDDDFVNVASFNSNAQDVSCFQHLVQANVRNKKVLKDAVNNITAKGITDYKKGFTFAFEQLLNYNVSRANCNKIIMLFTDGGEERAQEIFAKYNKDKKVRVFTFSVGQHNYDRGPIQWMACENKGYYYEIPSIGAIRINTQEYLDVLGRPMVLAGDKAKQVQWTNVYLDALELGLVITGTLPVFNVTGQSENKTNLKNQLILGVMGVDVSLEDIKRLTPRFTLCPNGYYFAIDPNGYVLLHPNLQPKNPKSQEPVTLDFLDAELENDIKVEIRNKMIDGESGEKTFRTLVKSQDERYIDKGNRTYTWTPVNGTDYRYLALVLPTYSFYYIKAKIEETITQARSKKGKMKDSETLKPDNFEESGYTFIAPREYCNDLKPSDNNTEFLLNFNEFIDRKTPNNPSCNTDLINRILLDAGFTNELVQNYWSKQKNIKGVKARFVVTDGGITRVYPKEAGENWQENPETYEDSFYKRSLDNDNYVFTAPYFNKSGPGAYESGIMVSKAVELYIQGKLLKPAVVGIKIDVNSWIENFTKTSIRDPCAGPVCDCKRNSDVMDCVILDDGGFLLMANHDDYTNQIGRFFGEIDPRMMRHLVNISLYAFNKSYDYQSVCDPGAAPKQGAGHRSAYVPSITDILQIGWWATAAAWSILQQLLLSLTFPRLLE
T1 sequence (P54290 945-1091 partner limits assumed): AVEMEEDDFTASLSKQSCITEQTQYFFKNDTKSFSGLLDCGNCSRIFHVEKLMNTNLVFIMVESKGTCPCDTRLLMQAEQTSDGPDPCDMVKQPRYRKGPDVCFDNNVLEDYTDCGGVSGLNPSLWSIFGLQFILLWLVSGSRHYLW
T1 sequence (P54287 whole entry partner): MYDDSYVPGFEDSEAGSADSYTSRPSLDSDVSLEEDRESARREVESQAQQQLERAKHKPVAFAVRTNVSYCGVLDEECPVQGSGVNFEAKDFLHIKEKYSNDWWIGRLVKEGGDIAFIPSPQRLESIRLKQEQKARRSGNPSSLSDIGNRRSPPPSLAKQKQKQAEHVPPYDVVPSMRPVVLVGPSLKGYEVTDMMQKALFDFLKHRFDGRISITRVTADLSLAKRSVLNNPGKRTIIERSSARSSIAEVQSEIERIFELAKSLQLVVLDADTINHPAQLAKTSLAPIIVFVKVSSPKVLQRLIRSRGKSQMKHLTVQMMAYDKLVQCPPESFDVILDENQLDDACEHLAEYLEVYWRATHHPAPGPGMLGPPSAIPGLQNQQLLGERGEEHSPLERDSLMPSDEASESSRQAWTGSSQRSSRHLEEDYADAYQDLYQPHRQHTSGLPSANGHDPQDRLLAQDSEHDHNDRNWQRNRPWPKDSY

Row | SMILES | inhibition at 10 µM ([1]; 10 μM) [%] | IC50 [1] [µM] | melting point [°C] | inhibition at 1 µM [4] [%] | inhibition at 10 µM [4] [%] | IC50 [4] [µM] | Inhibition of N-type Ca2+ Current, % Inhibition at 10 μM ([1]; 10 μM) [%] | Inhibition of K+ Current, % Inhibition at 10 μM [2] [%] | Inhibition of Na+ Current, % Inhibition at 10 μM [3] [%]
1 | CCC(C)[C@H](NC(=O)N1CCCCCC1)C(=O)N[C@@H](Cc1ccc(OCc2ccccc2)cc1)C(=O)OC(C)(C)C (stereo partly drawn) [Example 5, (S)-2-{(S)-2-[(Azepane-1-carbonyl)-amino]-3-methyl-pentanoylamino}-3-(4-benzyloxy-phenyl)-propionic acid tert-butyl ester] | 70 | 0.62 | 53 to 57 | 60 | 94 | 0.82 | – | 13 | 10
2 | CC(C)C[C@H](NC(=O)N1CCN(c2ccccc2)CC1)C(=O)N[C@@H](Cc1ccc(OCc2ccccc2)cc1)C(=O)OC(C)(C)C [Example 10, [S-(R*,R*)]-3-(4-Benzyloxy-phenyl)-2-{4-methyl-2-[(4-phenyl-piperazine-1-carbonyl)-amino]-pentanoylamino}-propionic acid tert-butyl ester] | – | – | 67 to 69 | 46 | 73 | 2.1 | – | – | –
3 | CC(C)C[C@H](NC(=O)N1CCCCCC1)C(=O)N[C@](C)(Cc1ccc(OCc2ccccc2)cc1)C(=O)OC(C)(C)C [Example 11B, 2(R)-{2(S)-[(Azepane-1-carbonyl)-amino]-4-methyl-pentanoylamino}-3-(4-benzyloxy-phenyl)-2-methyl-propionic acid tert-butyl ester] | 17 | – | 62 to 66 | 35 | 80 | 2.3 | – | 46 | 48
4 | CC(C)C[C@H](NC(=O)N1CCCCCC1)C(=O)N[C@@H](Cc1ccc(OC(C)(C)C)cc1)C(=O)OC(C)(C)C [Example 12, [S-(R*,R*)]-2-{2-[(Azepane-1-carbonyl)-amino]-4-methyl-pentanoylamino}-3-(4-tert-butoxy-phenyl)-propionic acid tert-butyl ester] | 65 | 6.78 | 87 to 90 | 57 | 95 | 0.48 | – | 38 | 14
5 | COc1ccc(C[C@H](NC(=O)[C@H](CC(C)C)NC(=O)N2CCCCCC2)C(=O)OC(C)(C)C)cc1 [Example 13, [S-(R*,R*)]-2-{2-[(Azepane-1-carbonyl)-amino]-4-methyl-pentanoylamino}-3-(4-methoxy-phenyl)-propionic acid tert-butyl ester] | – | – | 105 to 106 | 40 | 86 | 1.7 | – | – | –
6 | COC(=O)[C@H](Cc1ccc(OCc2ccccc2)cc1)NC(=O)[C@H](CC(C)C)NC(=O)N1CCCCCC1 [Example 15, [S-(R*,R*)]-2-{2-[(Azepane-1-carbonyl)-amino]-4-methyl-pentanoylamino}-3-(4-benzyloxy-phenyl)-propionic acid methyl ester] | – | – | 72 to 74 | 45 | 99 | 1.1 | – | – | –
7 | CC(C)C[C@H](NS(=O)(=O)c1ccc(C(C)C)cc1)C(=O)N[C@@H](Cc1ccc(OCc2ccccc2)cc1)C(=O)OC(C)(C)C [Example 37, [S-(R*,R*)]-3-(4-Benzyloxy-phenyl)-2(S)-[2(S)-(4-isopropyl-benzenesulfonylamino)-4-methyl-pentanoylamino]-propionic acid tert-butyl ester] | – | – | 147 to 148 | 65 | 91 | 0.28 | – | 9 | 5
8 | CC(C)C[C@H](NS(=O)(=O)c1ccc(Br)cc1)C(=O)N[C@@H](Cc1ccc(OCc2ccccc2)cc1)C(=O)OC(C)(C)C [Example 38, [S-(R*,R*)]-2-{2-[(4-Bromobenzene-1-sulfonyl-carbonyl)-amino]-4-methyl-pentanoylamino-3-(4-benzyloxyphenyl)-propionic acid, tert-butyl ester] | – | – | 148 to 149 | 48 | 83 | 0.94 | – | – | –

Further lines, with some results ahead:

Row | inhibition at 10 µM ([1]; 10 μM) [%] | IC50 [1] [µM] | melting point [°C] | inhibition at 1 µM [4] [%] | inhibition at 10 µM [4] [%] | IC50 [4] [µM] | Inhibition of N-type Ca2+ Current, % Inhibition at 10 μM ([1]; 10 μM) [%] | SMILES | Inhibition of K+ Current, % Inhibition at 10 μM [2] [%] | Inhibition of Na+ Current, % Inhibition at 10 μM [3] [%]
9 | – | – | 123 to 124 | 48 | 86 | 1 | – | CC(C)C[C@H](NS(=O)(=O)N1CCCCCC1)C(=O)N[C@@H](Cc1ccc(OCc2ccccc2)cc1)C(=O)OC(C)(C)C [Example 40, [S-(R*,R*)]-2-[2-(Azepane-1-sulfonylamino)-4-methyl-pentanoylamino]-3-(4-benzyloxy-phenyl)-propionic acid tert-butyl ester] | – | –
10 | – | – | 125 to 126 | 51 | 86 | 0.8 | – | CC(C)C[C@H](NS(=O)(=O)N1CCCCC1)C(=O)N[C@@H](Cc1ccc(OCc2ccccc2)cc1)C(=O)OC(C)(C)C [Example 41, [S-(R*,R*)]-3-(4-Benzyloxy-phenyl)-2-[4-methyl-2-(piperidine-1-sulfonylamino)-pentanoylamino]-propionic acid tert-butyl ester] | – | –
11 | 64 | – | 54 to 57 | 50 | 95 | 0.95 | – | CC(C)C[C@H](NS(=O)(=O)N1CCOCC1)C(=O)N[C@@H](Cc1ccc(OCc2ccccc2)cc1)C(=O)OC(C)(C)C [Example 42, [S-(R*,R*)]-3-(4-Benzyloxy-phenyl)-2-[4-methyl-2-(morpholine-4-sulfonylamino)-pentanoylamino]-propionic acid tert-butyl ester] | – | –
12 | – | – | 161 to 162 | 42 | 63 | 1.3 | – | CC(C)C[C@H](NC(=S)NC1CCCCC1)C(=O)N[C@@H](Cc1ccc(OCc2ccccc2)cc1)C(=O)OC(C)(C)C [Example 47, [S-(R*,R*)]-3-(4-benzyloxy-phenyl)-2-[2-(3-cyclohexyl-thioureido)-4-methyl-pentanoylamino}-propionic acid, tert-butyl ester] | – | –
13 | – | – | 66 to 67 | 52 | 81 | 1.2 | – | CC(C)C[C@H](NC(=S)Nc1ccccc1Cl)C(=O)N[C@@H](Cc1ccc(OCc2ccccc2)cc1)C(=O)OC(C)(C)C [Example 48, [S-(R*,R*)]-3-(4-Benzyloxy-phenyl)-2-{2-[3-(2-chloro-phenyl)-thioureido]-4-methyl-pentanoylamino}-propionic acid tert-butyl ester] | – | –
14 | – | 2.84 | – | – | – | 0.92 | 58 | CC(C)CC(NC(=O)N1CCCCCC1)C(=O)NC(Cc1ccc(OCc2ccccc2)cc1)C(=O)NC(C)C(C)C (centres unmarked) [Example 192, Azepane-1-carboxylic acid {1-[2-(4-benzyloxy-phenyl)-1-(1,2-dimethylpropylcarbamoyl)-ethylcarbamoyl]-3-methyl-butyl}-amide] | 58 | 26
